Reference: patent publication US11241437B2, “Heterocyclic compounds, preparation methods and uses thereof” (InventisBio Co., Ltd., priority 2019, dated 2022)
Values after ≈ are worked out from the molar mass of the structure shown. Like-named read-outs stand apart in the source and are kept apart here.

Key:
Type in all cases: physicochemical
[1] = Mechanical stability (grinding) of Form IV of Compound 1; details: ground for 2 and 5 min
Description: Form IV was also tested for mechanical stability. In this case, appropriate amount of Form IV was ground for 2 and 5 min, and then tested by XRPD to check the crystal form.

[2] = Solubility of Compound 1 solid forms in bio-relevant media and water
Description: Solubility Studies: Solubility of Form IV was tested in three bio-relevant media (Simulated Gastric Fluid (SGF), Fasted State Simulated Intestinal Fluid (FaSSIF), and Fed State Simulated Intestinal Fluid (FeSSIF)) and water. […] Form IV (˜10 mg) was weighed into 2 mL of four media to make suspensions respectively, and about 10 mg of the amorphous starting material was also added into 2 mL of FaSSIF. Then all suspensions were shaken at 37° C. with 200 rpm for up to 24 hours. At 0.5, 2 and 24 hours, about 0.7 mL of each suspension was filtered. The filtrate was analyzed by HPLC and pH meter, and the residual solids were also checked by XRPD at 24 hours.

[3] = Interconversion studies of solid forms of Compound 1 (slurry); details: water or MeOH/water (1/4) at RT and 50° C. for 3 days
Description: Interconversion Studies: Equal amounts (˜7 mg) of Form I, II and III were mixed together and then suspended in 0.5 mL of different solvents at room temperature or 50° C., respectively. Residual solids were collected by filtration and characterized at appropriate time. Additionally, Form IV (˜12 mg) was slurried in 0.5 ml, water or MeOH/water (1/4) at RT or 50° C. for 3 days. Residual solids were collected by filtration and analyzed by XRPD.

[4] = Stability studies of Form IV of Compound 1 (HPLC and XRPD)
Description: Method 1. a representative HPLC method is shown below, which can be used, for example, to analyze the purity, solubility, and stability of Compound 1 herein.
Stability Studies: Appropriate amounts of Form IV were put at 40° C./75% RH, 60° C. and 25±2° C./92.5% RH conditions for 14 days. Then the sample was tested by HPLC and XRPD to determine the chemical and physical stability.

[5] = Polymorph characterization summary of Compound 1 forms (form stability)
Description: In the polymorph screening, five XRPD Patterns (FIG. 11) were generated, and four forms were identified including 2 anhydrates and 2 hydrates.

[6] = Dynamic moisture sorption analysis (DVS) of Form IV of Compound 1
Description: Method 1. Used for studies with solid state of Compound 1. Moisture sorption/desorption data was collected on a DVS Intrinsic (SMS, UK). The sample was placed into a tared sample chamber and automatically weighed. The sample was dried at 40° C. until the dm/dt was less than 0.002% and cooled to 25° C. Set the instrument parameters as below.

Q: What does the source list for `C=CC(=O)N1C[C@H](C)N(c2nc(=O)n(-c3c(C4CC4)ncnc3C3CC3)c3nc(-c4c(N)cccc4F)c(Cl)cc23)C[C@H]1C` [Form IV]?
A: Crystal form after grinding (XRPD) [1]: no new form was generated; Solubility ([2]; FaSSIF, 37° C., 0.5 h): 0.017 mg/mL (≈ 27.6 µM); Solubility ([2]; FaSSIF, 37° C., 2 h): 0.016 mg/mL (≈ 26 µM); Solubility ([2]; FaSSIF, 37° C., 24 h): 0.021 mg/mL (≈ 34.1 µM); XRPD-24 h of residual solids ([2]; FaSSIF, 37° C., 24 h): unchanged; Solubility in FaSSIF ([2]; FaSSIF, time point not stated): 0.02 mg/mL (≈ 32.5 µM); XRPD-24 h of residual solids ([2]; FeSSIF, 37° C., 24 h): unchanged; solubility at 0.5 h ([2]; FeSSIF, 37 °C, thermodynamic from solid, 0.5 h): 0.037 mg/mL (≈ 60.2 µM); solubility at 2 h ([2]; FeSSIF, 37 °C, thermodynamic from solid, 2 h): 0.037 mg/mL (≈ 60.2 µM); solubility at 24 h ([2]; FeSSIF, 37 °C, thermodynamic from solid, 24 h): 0.062 mg/mL (≈ 101 µM); XRPD-24 h of residual solids ([2]; SGF, 37° C., 24 h): unchanged; solubility at 0.5 h ([2]; SGF, 37 °C, simulated gastric fluid, thermodynamic from solid, 0.5 h): 0.036 mg/mL (≈ 58.5 µM); solubility at 2 h ([2]; SGF, 37 °C, simulated gastric fluid, thermodynamic from solid, 2 h): 0.034 mg/mL (≈ 55.3 µM); solubility at 24 h ([2]; SGF, 37 °C, simulated gastric fluid, thermodynamic from solid, 24 h): 0.036 mg/mL (≈ 58.5 µM); Solubility ([2]; SGF, FeSSIF, water, 37 °C, thermodynamic from solid, media other than FaSSIF (SGF, FeSSIF, water), read-out: Solubility in other media): < 0.07 mg/mL; XRPD-24 h of residual solids ([2]; Water, 37° C., 24 h): unchanged; solubility at 0.5 h ([2]; water, 37 °C, thermodynamic from solid, 0.5 h): 0.014 mg/mL (≈ 22.8 µM); solubility at 2 h ([2]; water, 37 °C, thermodynamic from solid, 2 h): 0.011 mg/mL (≈ 17.9 µM); solubility at 24 h ([2]; water, 37 °C, thermodynamic from solid, 24 h): 0.009 mg/mL (≈ 14.6 µM); Form after slurry in aqueous systems (XRPD) [3]: remained unchanged; Purity ([4]; 40° C./75% RH, 7 D): 98.21 Area %; Purity ([4]; 40° C./75% RH, 14 D): 98.12 Area %; Physical stability, XRPD ([4]; 40° C./75% RH, 60° C. and 25° C./92.5% RH, 14 days): XRPD remained unchanged; Chemical stability, impurities ([4]; 60° C. for 2 weeks): a new impurity was detected; Purity ([4]; 60° C., 7 D): 97.98 Area %; Purity ([4]; 60° C., 14 D): 97.88 Area %; Purity-initial ([4]; initial, before storage): 98.30 Area %; Stability of the solid form [5]: Stable form, slightly; Crystal form after DVS testing [6]: remained unchanged; Hygroscopicity (DVS) ([6]; 25° C.): slightly hygroscopic; Water uptake (DVS) ([6]; at 80% RH, 25° C.): about 1.37%
